# Assay: Phase 1 single ascending dose study with healthy subjects (adverse events)
# Type: in vivo, human
# Conditions: for No. of subjects reporting AEs / No. of subjects with AE Abdominal pain / No. of subjects with AE Cough / No. of subjects with AE Diarrhoea / No. of subjects with AE Dizziness / No. of subjects with AE Flushing / No. of subjects with AE Headache / No. of subjects with AE Jaw pain / No. of subjects with AE Muscle spasm / No. of subjects with AE Nausea / No. of subjects with AE Neck pain / No. of subjects with AE Oropharyngeal pain / No. of subjects with AE Pain in extremity / No. of subjects with AE Photophobia / No. of subjects with AE Vomiting / Number of Subjects Reporting AEs By Most Direct Relationship to Study Treatment: Definitely not related / Number of Subjects Reporting AEs By Most Direct Relationship to Study Treatment: Possibly related / Number of Subjects Reporting AEs By Most Direct Relationship to Study Treatment: Probably not related / Number of Subjects Reporting AEs By Most Direct Relationship to Study Treatment: Probably related: 6 subjects
# Protocol: This study was a phase 1, randomized, double-blind, placebo-controlled study of four cohorts of 8 subjects each (2 subjects were assigned to receive placebo, and 6 to receive Compound 1). Each cohort was assigned to receive a single dose level of blinded study medication in an ascending dose fashion; dosing began at 0.1 mg.
# All enrolled subjects received a single oral dose of study medication (Compound 1 or placebo). Dose escalation was slowed or discontinued when predefined safety criteria based on peak plasma exposure levels, blood pressure changes, or adverse events (AEs) were met. […] Two lower dose cohorts were added, in which the doses of Compound 1were 0.05 mg and 0.03 respectively.
# After each cohort was dosed, the following safety parameters were monitored: vital signs, clinical laboratory tests to include serum chemistry, hematology, and urinalysis, 12-lead ECG, plasma Compound 1 concentration, and AEs. Pharmacokinetic parameters were monitored and calculated for Compound 1.
structure (smiles),measurement,setting,value
"O=C(O)COC[C@H]1CC[C@H](COC(=O)N(c2ccccc2)c2ccc(Cl)cc2)CC1 [Compound 1, 2-(((1r,4r)-4-(((4-chlorophenyl)(phenyl)carbamoyloxy)methyl)cyclohexyl)methoxy)acetic acid]",AEs on which dose escalation was discontinued,"2nd cohort, single oral dose 0.2 mg",prolonged nausea and vomiting that was severe in intensity
same,Tolerability of the dose,"single dose 0.1 mg, some subjects experienced nausea, vomiting, headache, and jaw pain",tolerated
same,Tolerability of the dose,single dose 0.2 mg,Intolerable AEs
same,No. of subjects reporting AEs,single oral dose 0.03 mg,2 subjects
same,No. of subjects with AE Abdominal pain,single oral dose 0.03 mg,0 subjects
same,No. of subjects with AE Cough,single oral dose 0.03 mg,0 subjects
same,No. of subjects with AE Diarrhoea,single oral dose 0.03 mg,0 subjects
same,No. of subjects with AE Dizziness,single oral dose 0.03 mg,0 subjects
same,No. of subjects with AE Flushing,single oral dose 0.03 mg,0 subjects
same,No. of subjects with AE Headache,single oral dose 0.03 mg,2 subjects
same,No. of subjects with AE Jaw pain,single oral dose 0.03 mg,0 subjects
same,No. of subjects with AE Muscle spasm,single oral dose 0.03 mg,0 subjects
same,No. of subjects with AE Nausea,single oral dose 0.03 mg,0 subjects
same,No. of subjects with AE Neck pain,single oral dose 0.03 mg,0 subjects
same,No. of subjects with AE Oropharyngeal pain,single oral dose 0.03 mg,0 subjects
same,No. of subjects with AE Pain in extremity,single oral dose 0.03 mg,0 subjects
same,No. of subjects with AE Photophobia,single oral dose 0.03 mg,0 subjects
same,No. of subjects with AE Vomiting,single oral dose 0.03 mg,0 subjects
same,Number of Subjects Reporting AEs By Most Direct Relationship to Study Treatment: Definitely not related,single oral dose 0.03 mg,0 subjects
same,Number of Subjects Reporting AEs By Most Direct Relationship to Study Treatment: Possibly related,single oral dose 0.03 mg,2 subjects
same,Number of Subjects Reporting AEs By Most Direct Relationship to Study Treatment: Probably not related,single oral dose 0.03 mg,0 subjects
same,Number of Subjects Reporting AEs By Most Direct Relationship to Study Treatment: Probably related,single oral dose 0.03 mg,0 subjects
same,No. of subjects reporting AEs,single oral dose 0.05 mg,5 subjects
same,No. of subjects with AE Abdominal pain,single oral dose 0.05 mg,1 subjects
same,No. of subjects with AE Cough,single oral dose 0.05 mg,0 subjects
same,No. of subjects with AE Diarrhoea,single oral dose 0.05 mg,0 subjects
same,No. of subjects with AE Dizziness,single oral dose 0.05 mg,0 subjects
same,No. of subjects with AE Flushing,single oral dose 0.05 mg,1 subjects
same,No. of subjects with AE Headache,single oral dose 0.05 mg,5 subjects
same,No. of subjects with AE Jaw pain,single oral dose 0.05 mg,2 subjects
same,No. of subjects with AE Muscle spasm,single oral dose 0.05 mg,0 subjects
same,No. of subjects with AE Nausea,single oral dose 0.05 mg,1 subjects
same,No. of subjects with AE Neck pain,single oral dose 0.05 mg,0 subjects
same,No. of subjects with AE Oropharyngeal pain,single oral dose 0.05 mg,0 subjects
same,No. of subjects with AE Pain in extremity,single oral dose 0.05 mg,0 subjects
same,No. of subjects with AE Photophobia,single oral dose 0.05 mg,1 subjects
same,No. of subjects with AE Vomiting,single oral dose 0.05 mg,0 subjects
same,Number of Subjects Reporting AEs By Most Direct Relationship to Study Treatment: Definitely not related,single oral dose 0.05 mg,0 subjects
same,Number of Subjects Reporting AEs By Most Direct Relationship to Study Treatment: Possibly related,single oral dose 0.05 mg,5 subjects
same,Number of Subjects Reporting AEs By Most Direct Relationship to Study Treatment: Probably not related,single oral dose 0.05 mg,0 subjects
same,Number of Subjects Reporting AEs By Most Direct Relationship to Study Treatment: Probably related,single oral dose 0.05 mg,0 subjects
same,No. of subjects reporting AEs,single oral dose 0.1 mg,6 subjects
same,No. of subjects with AE Abdominal pain,single oral dose 0.1 mg,1 subjects
same,No. of subjects with AE Cough,single oral dose 0.1 mg,0 subjects
same,No. of subjects with AE Diarrhoea,single oral dose 0.1 mg,0 subjects
same,No. of subjects with AE Dizziness,single oral dose 0.1 mg,1 subjects
same,No. of subjects with AE Flushing,single oral dose 0.1 mg,1 subjects
same,No. of subjects with AE Headache,single oral dose 0.1 mg,5 subjects
same,No. of subjects with AE Jaw pain,single oral dose 0.1 mg,3 subjects
same,No. of subjects with AE Muscle spasm,single oral dose 0.1 mg,0 subjects
same,No. of subjects with AE Nausea,single oral dose 0.1 mg,2 subjects
same,No. of subjects with AE Neck pain,single oral dose 0.1 mg,1 subjects
same,No. of subjects with AE Oropharyngeal pain,single oral dose 0.1 mg,0 subjects
same,No. of subjects with AE Pain in extremity,single oral dose 0.1 mg,0 subjects
same,No. of subjects with AE Photophobia,single oral dose 0.1 mg,0 subjects
same,No. of subjects with AE Vomiting,single oral dose 0.1 mg,2 subjects
same,Number of Subjects Reporting AEs By Most Direct Relationship to Study Treatment: Definitely not related,single oral dose 0.1 mg,1 subjects
same,Number of Subjects Reporting AEs By Most Direct Relationship to Study Treatment: Possibly related,single oral dose 0.1 mg,4 subjects
same,Number of Subjects Reporting AEs By Most Direct Relationship to Study Treatment: Probably not related,single oral dose 0.1 mg,0 subjects
same,Number of Subjects Reporting AEs By Most Direct Relationship to Study Treatment: Probably related,single oral dose 0.1 mg,1 subjects
same,No. of subjects reporting AEs,single oral dose 0.2 mg,6 subjects
same,No. of subjects with AE Abdominal pain,single oral dose 0.2 mg,0 subjects
same,No. of subjects with AE Cough,single oral dose 0.2 mg,0 subjects
same,No. of subjects with AE Diarrhoea,single oral dose 0.2 mg,1 subjects
same,No. of subjects with AE Dizziness,single oral dose 0.2 mg,0 subjects
same,No. of subjects with AE Flushing,single oral dose 0.2 mg,2 subjects
same,No. of subjects with AE Headache,single oral dose 0.2 mg,5 subjects
same,No. of subjects with AE Jaw pain,single oral dose 0.2 mg,1 subjects
same,No. of subjects with AE Muscle spasm,single oral dose 0.2 mg,1 subjects
same,No. of subjects with AE Nausea,single oral dose 0.2 mg,3 subjects
same,No. of subjects with AE Neck pain,single oral dose 0.2 mg,0 subjects
same,No. of subjects with AE Oropharyngeal pain,single oral dose 0.2 mg,1 subjects
same,No. of subjects with AE Pain in extremity,single oral dose 0.2 mg,1 subjects
same,No. of subjects with AE Photophobia,single oral dose 0.2 mg,0 subjects
same,No. of subjects with AE Vomiting,single oral dose 0.2 mg,6 subjects
same,Number of Subjects Reporting AEs By Most Direct Relationship to Study Treatment: Definitely not related,single oral dose 0.2 mg,0 subjects
same,Number of Subjects Reporting AEs By Most Direct Relationship to Study Treatment: Possibly related,single oral dose 0.2 mg,0 subjects
same,Number of Subjects Reporting AEs By Most Direct Relationship to Study Treatment: Probably not related,single oral dose 0.2 mg,0 subjects
same,Number of Subjects Reporting AEs By Most Direct Relationship to Study Treatment: Probably related,single oral dose 0.2 mg,6 subjects
